Assay results published in paper PMC11359702, “Synthesis and Biochemical Evaluation of Ethanoanthracenes and Related Compounds: Antiproliferative and Pro-Apoptotic Effects in Chronic Lymphocytic Leukemia (CLL)” (Pharmaceuticals, 2024).
pIC50: −log10 of the molar value. Where “and” joins values, the source holds several entries; their conditions need not be identical. Equal values may be shown once. Read-outs that look alike come from different tables or passages of the source.

Experiments:
UO-31 = assay: NCI-60 five-dose assay; assay type: cell-based, human
Experimental: (§1) A number of our most promising compounds identified through preliminary cell viability testing (23c, 23d, 23f, 23h, 23l, 23m, 23n, 23o, 24f, 24l, 25n and 26n) were selected for NCI drug screening in the 60-cell-line panel. The panel includes nine subcategories based on cancer tissue types, which include leukemia, ovarian, central nervous system, breast, lung, prostate, skin, renal and colon cancer. The compounds were initially assessed in a one-dose assay at a fixed treatment concentration of 10 µM. The compounds selected for further investigation were progressed to a five-dose assay across the concentration ranges of 0.01, 0.1, 1, 10 and 100 µM [72]. The endpoints assessed in the screening protocol were GI50, TGI and LC50 [72].

MALME-3M = assay: NCI-60 five-dose assay; assay type: cell-based, human
Experimental: as §1

SNB-75 = assay: NCI-60 five-dose assay; assay type: cell-based, human
Experimental: as §1

PGA-1 cells [1] = assay: alamarBlue cell viability assay; conditions: for pIC50: read-out: PGA-1 IC50
[2] = test system: NCI 60 cancer cell line panel; assay: NCI-60 five-dose assay, full-panel means; assay type: cell-based
Method in brief: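 Five-dose format: 0.01, 0.1, 1, 10, 100 µM; entry via one-dose prescreen (10 µM). Readouts GI50, TGI, LC50. NCI-60 panel.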

MOLT-4 = assay: NCI-60 five-dose assay; assay type: cell-based, human
RPMI-8226 = assay: NCI-60 five-dose assay; assay type: cell-based, human
HG-3 cells [3] = assay: alamarBlue cell viability assay; conditions: HG-3, 24 h; for pIC50: read-out: HG-3 IC50; for viability at 10 µM: read-out: cell viability, HG-3, 10 µM, 24 h, vehicle = 100%
leukemia cell panel = assay: NCI-60 five-dose assay, leukemia cell panel mean; assay type: cell-based, human; conditions: mean across the six leukemia cell lines
[4] = test system: HG-3 and PGA-1 cell lines; assay: alamarBlue cell viability assay, mean of both CLL cell lines; assay type: cell-based, human; conditions: mean of HG-3 and PGA-1
K-562 = assay: NCI-60 five-dose assay; assay type: cell-based, human
melanoma cell lines = assay: NCI-60 five-dose assay, melanoma cell lines; assay type: cell-based, human; conditions: range over melanoma cell lines
Experimental: as §1

PGA-1 cells [5] = assay: Annexin V/PI apoptosis assay (FACS); assay type: cell-based, human; conditions: PGA-1, 10 µM
Experimental: (§2) The pro-apoptotic effects of selected nitrovinylethanoanthracene compounds 20a and 20f and anthracene chalcones 23a and 25n in HG-3 cells and PGA-1 cells was then investigated using FITC (fluorescein isothiocyanate), Annexin V/PI (propidium iodide) and FACS (fluorescence-activated cell sorting) analysis to characterize the mode of cellular death induced. Apoptosis was assessed as % total apoptosis (total of early (Q3) and late (Q2) apoptosis).
(§3) CLL cells PGA-1 and HG-3 (1 × 10^6 cells/mL) were treated at 37 °C with either the vehicle (1% (v/v) DMSO) or the ethanoanthracene compounds 20a, 20f, 23a and 25n (10 µM, 5 µM and 1 µM) for 48 h, following the protocol previously described. The cells were then harvested via centrifugation at 400× g in a temperature-controlled Sorvall centrifuge. The cells were rinsed with Ca^2+ Annexin-V-binding buffer (0.1 M HEPES, pH 7.4; 0.14 M NaCl; 25 mM CaCl2, 0.5 mL). The samples were resuspended in FITC Annexin V (diluted 1:33 in Ca^2+ Annexin V-binding buffer, 50 µL) and incubated for 10 min (on ice and protected from light). The samples were washed with Annexin-V-binding buffer and resuspended in a PI solution (0.5 µg/mL, 500 µL) and analyzed within 1 h using a BD Accuri C6 flow cytometer counting 10,000 cells using the FlowJo software Version 10 (FlowJo LLC, Ashland, OR, USA).

HG-3 cells [6] = assay: Annexin V/PI apoptosis assay (FACS); assay type: cell-based, human
Experimental: as §2, §3

PGA-1 cells [7] = assay: LDH cytotoxicity assay (CytoTox 96); assay type: cell-based; conditions: 24 h
Source text: The lactate dehydrogenase (LDH) assay is used to assess the membrane integrity of cells as a function of the cytoplasmic LDH released. The loss of cell membrane integrity (due to cytotoxic insult) is detectable through LDH release into the cell growth medium. The assay is initiated via the reduction in cellular co-factor NAD^+ to NADH catalyzed via the LDH enzyme. Newly formed NADH catalyzes the acidic reduction in iodonitrotetrazolium chloride (INT) to the highly colored formazan (red) (mediated via the diaphorase enzyme). […] At the 10-µM treatment concentration, mild to moderate cytotoxicity (19–47%) was observed. […] Cytotoxicity remained low to mild at 1 µM (4–18%) with 23a displaying the lowest LDH release (4%).
Following the treatment of the HG-3 and PGA-1 cells at 10 µM for 24 hr, the amount of LDH released was determined using an LDH assay kit from Promega (G1780). Cell lysis solution = 100% cell lysis and LDH release). Data are presented as % cell death at a concentration of 10 µM. Cells were treated with ethanoanthracene compounds 20a, 20f, 23a and 25n (1 µM and 10 µM) for 24 h. Values are shown as the mean of three independent experiments.
The cytotoxicity of the selected compounds 20a, 20f, 23a and 25n was determined using the CytoTox 96 non-radioactive cytotoxicity assay (Promega Corporation; 2800 Woods Hollow Road, Madison, WI, USA). CLL cells HG-3 and PGA-1 were incubated for 24 h and then treated with the selected compounds 20a, 20f, 23a and 25n at 10-µM and 1-µM concentrations, following the protocol outlined above in the cell viability assay. After 24 h, the lysis solution (10×) (20 µL) was added, and the cells were incubated for a further 1 h to ensure complete cell death. Supernatant (50 µL) was removed from each well and transferred to a clean 96-well plate. “Substrate mix” (50 µL) was added, and the plate was stored in the dark at 20 °C for 30 min. “Stop solution” (50 µL) was added to each well, and the absorbance at 490 nm was recorded using a Dynatech MR5000 plate reader; the % cell death was determined relative to the control cell lysis solution.

CCRF-CEM = assay: NCI-60 five-dose assay; assay type: cell-based, human
HL-60(TB) = assay: NCI-60 five-dose assay; assay type: cell-based, human
SR = assay: NCI-60 five-dose assay; assay type: cell-based, human
[8] = Homo sapiens, 24 h, read-out: cell viability
[9] = Homo sapiens, mean over NCI 60 cell line panel, read-out: Mean GI50 (MID GI50, full-panel mean-graph mid-point)
[10] = Homo sapiens, mean over NCI 60 cell line panel, read-out: Mean LC50 (MID LC50)
[11] = mean over NCI 60 cell line panel
[12] = Homo sapiens, RPMI-8226, RPMI-8226

| Compound | GI50 (UO-31; Homo sapiens) [nM] | GI50 (MALME-3M; Homo sapiens, Malme-3M) [nM] | pIC50 (PGA-1 cells [1]; Homo sapiens, 24 h) | viability at 10 µM (PGA-1 cells [1]; [8]) [%] | GI50 [2, 9] [nM] | CC50 [2, 10] [nM] | Mean TGI (MID TGI, total growth inhibition) [2, 11] [nM] | GI50 (MOLT-4; Homo sapiens, MOLT-4, MOLT-4) [nM] | GI50 (MOLT-4; MOLT-4) [nM] | GI50 (RPMI-8226; [12]) [nM] | GI50 (RPMI-8226; RPMI-8226) [nM] | pIC50 (HG-3 cells [3]; Homo sapiens) | GI50 (leukemia cell panel; Homo sapiens) [nM] | pIC50 ([4]; Homo sapiens, CLL cell) | GI50 (K-562; Homo sapiens, K562, K-562) [nM] | GI50 (K-562; K-562) [nM] | GI50 (melanoma cell lines; Homo sapiens) [nM] | total apoptosis (early Q3 + late Q2) (PGA-1 cells [5]) | total apoptosis (early Q3 + late Q2) (HG-3 cells [6]; HG-3, 1 µM) [%] | total apoptosis (early Q3 + late Q2) (HG-3 cells [6]; HG-3, 10 µM) | further results |
| --- | --- | --- | --- | --- | --- | --- | --- | --- | --- | --- | --- | --- | --- | --- | --- | --- | --- | --- | --- | --- | --- |
| O=C(/C=C/C12c3ccccc3C(c3ccccc31)C1C(=O)NC(=O)C12)c1ccc(F)cc1 (racemic) [Compound 23h] | 1120 | 1600 | 5.54 | 9 | 1700 | 14400 | 4265 | 460 | 759 | 1620 | 1160 | 5.33 | 1000 | 5.42 | 1420 | 1550 | 1600 to 2480 | – | – | – | GI50 (SNB-75; Homo sapiens): 1370 nM |
| O=C(C=CC12c3ccccc3C(c3ccccc31)C1C(=O)NC(=O)C12)c1ccc(Br)cc1 (centres unmarked) [Compound 23a, 9-(E)-3-(4-Bromophenyl)-3-oxoprop-1-en-1-yl)-9,10-dihydro-9,10-[3,4]epipyrroloanthracene-12,14-dione] | – | – | 5.71 | 3 | – | – | – | – | – | – | – | 5.57 | – | 5.63 | – | – | – | 87–97% and 89% | 33 | 82–95% and 95% | LDH release (cytotoxicity, % cell death) (PGA-1 cells [7]; PGA-1, 1 µM): 4%; LDH release (cytotoxicity, % cell death) (PGA-1 cells [7]; PGA-1, 10 µM): 23%; viability at 10 µM (HG-3 cells [3]; Homo sapiens): 0.5% |
| O=C(/C=C/C12c3ccccc3C(c3ccccc31)C1C(=O)NC(=O)C12)c1ccc(Cl)cc1 (racemic) [Compound 23l, (E)-9-(3-(4-Chlorophenyl)-3-oxoprop-1-en-1-yl)-9,10-dihydro-9,10-[3,4]epipyrroloanthracene-12,14-dione] | – | – | – | – | – | – | 4265 | – | 1700 | – | 1660 | – | – | – | – | 1990 | – | – | – | – | GI50 (UO-31): 1280 nM; GI50 (MALME-3M; MALME-3M): 1510 nM; GI50 (SNB-75): 1100 nM; pIC50 (PGA-1 cells [1]; PGA-1, 24 h): 5.49; CC50 [2]: 13200 nM; GI50 ([2]; mean over NCI 60 cell line panel, read-out: Mean GI50 (MID GI50, full-panel mean-graph mid-point)): 1620 nM; pIC50 (HG-3 cells [3]): 5.65; GI50 (leukemia cell panel): 1770 nM; GI50 (CCRF-CEM): 1660 nM; GI50 (HL-60(TB); HL-60(TB)): 1470 nM; GI50 (SR): 2150 nM; pIC50 [4]: 5.57; GI50 (melanoma cell lines): 1400 to 1810 nM |
| O=C(C=CC12c3ccccc3C(c3ccccc31)C1C(=O)N(c3ccc(Cl)cc3)C(=O)C12)c1ccccn1 (centres unmarked) [Compound 25n, (E)-13-(4-Chlorophenyl)-9-(3-oxo-3-(pyridin-2-yl)prop-1-en-1-yl)-9,10-dihydro-9,10-[3,4]epipyrroloanthracene-12,14-dione] | 208 | 316 | 6.06 | 7 | 245 | 18600 | – | 320 | 366 | 250 | 252 | 5.88 | 290 | 5.96 | 290 | 293 | 194 to 1080 | 87–97% and 87% | 37 | 82–95% and 93% | viability at 1 µM (PGA-1 cells [1]; [8]): 25%; LDH release (cytotoxicity, % cell death) (PGA-1 cells [7]; PGA-1, 10 µM): 15%; GI50 ([2]; Homo sapiens, heatmap Figure 8, concentration in molar, read-out: Log 10 GI-50 Mean (converted)): 389 nM; IC50 ([2]; Homo sapiens, heatmap Figure 8, concentration in molar, read-out: Log 10 IC-50 Mean (converted)): 741 nM; CC50 ([2]; Homo sapiens, heatmap Figure 8, concentration in molar, read-out: Log 10 LC-50 Mean (converted)): 41700 nM; viability at 1 µM (HG-3 cells [3]; Homo sapiens, read-out: cell viability, HG-3, 1 µM, 24 h, vehicle = 100%): 30%; viability at 10 µM (HG-3 cells [3]; Homo sapiens): 2%; GI50 (CCRF-CEM): 321 nM; GI50 (CCRF-CEM; Homo sapiens): 320 nM; GI50 (HL-60(TB); HL-60(TB)): 292 nM; GI50 (HL-60(TB); Homo sapiens, HL-60, HL-60(TB)): 290 nM; GI50 (SR): 284 nM; GI50 (SR; Homo sapiens): 280 nM |
